Test results: US20090069324A1, “CHEMICAL INHIBITORS OF BFL-1 AND RELATED METHODS” (The Burnham Institute, priority 2007, published 2009)
pIC50: −log10 of the molar value. “And” between values parts separate entries of the source, which are not always exact repeats. Identical values can stand only once.

Key:
[1] = molecular target: T1, Bfl-1 (Homo sapiens, UniProt Q16548); assay: Bfl-1 fluorescence polarization assay (FPA/FP), competition with FITC-Bid BH3 peptide; assay type: binding; settings: for pIC50 / IC50 / Bfl-1 FPA IC50 (uM): Tables 7-8; for pIC50 / Bfl-1 FPA IC50 (uM): Avg where the cell lists several determinations; for pIC50: read-out: Bfl-1 FPA IC50; for IC50: single values listed before the Avg, read-out: Bfl-1 FPA IC50 (uM), individual determinations; for Bfl-1 FP assay, activity in words: Bfl-1/FITC-Bid
T1 construct: lacking their C-terminal transmembrane domains (approximately last 20 amino-acids); made in house; host or cells: XL-1 Blue cells (E. coli), pGEX 4T-1
T1 sequence (Q16548 1-155 limits assumed): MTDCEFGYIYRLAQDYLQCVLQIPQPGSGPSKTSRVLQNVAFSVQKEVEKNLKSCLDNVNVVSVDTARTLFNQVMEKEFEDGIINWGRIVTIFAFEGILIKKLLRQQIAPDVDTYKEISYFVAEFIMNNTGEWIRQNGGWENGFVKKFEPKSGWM
Description: Fluorescence polarization assays (FPA). To determine the binding affinity of anti-apoptotic Bcl-2 polypeptides to FITC-conjugated Bid BH3 peptide, fluorescence polarization assays (FPAs) were performed according to published procedures (Zhai et al., Biochem. J. 376:229-236 (2003)). […] Fluorescence polarization was measured after 10 min using an Analyst™ AD Assay Detection System (LJL Biosystem, Sunnyvale, Calif.) in phosphate-buffered saline (PBS) (pH 7.4). The IC50 determinations were performed using GraphPad Prism software (GraphPad, Inc., San Diego, Calif.).
Competition assays. Using the same procedure outlined above, 100 nM of GST-Bfl-1 protein were incubated with the compounds at 50 μM concentration for 30 min. Then, 5 nM of FITC-Bid BH3 peptide was added. Fluorescence polarization was measured after 10 min. […]

[2] = molecular target: T1, Bfl-1; assay: Bfl-1 TR-FRET assay (FITC-Bid, Tb-anti-GST antibody); assay type: binding; settings: for IC50: single values listed before the Avg, read-out: Bfl-1 TR-FRET IC50 (uM), individual determinations; for Bfl-1 TR-FRET assay, activity in words: Bfl-1/FITC-Bid
Description: TR-FRET assay. For confirmation of FPA results, a TR-FRET assay utilizing terbium- (Tb-) labeled anti-GST antibody (Th-Ab) was developed. […] The reaction mixture was preincubated for 1 h, and TR-fluorescence (TRF) was measured on an M5 plate reader (Molecular Devices) using excitation at 340 nm and emission at […]. The measurements were averaged from 5 readings during 1 ms after an initial delay 0.1 ms. TR-FRET signal was calculated as the ratio of TR-Fluorescence at 520 nm to TR-Fluorescence at […].
For Bfl-1 TR-FRET assays, Bfl-1 protein and FITC-Bid peptide (FITC-Ahx-[…]) (SEQ ID NO: 1) were utilized. Terbium-anti-GST antibody (Tb-anti-GST Ab) was obtained from Invitrogen (San Diego Calif.). The assay buffer contained 25 mM Bis-Tris, pH 7.0, 1 mM TCEP, and 0.005% Tween 20. The Tb-Ab buffer contained 2.5 nM Tb-anti-GST antibody in assay buffer. The Bfl-1/Th-Ab working solution contained 5 nM Bfl-1 in Th-Ab assay buffer. The solution was prepared fresh and kept on ice prior to use. The FITC-Bid working solution contained 5.6 nM FITC-Bid in assay buffer.
For the Bfl-1 TR-FRET dose-response screening protocol, dose-response curves contained 10 concentrations of compounds obtained using 2-fold serial dilution. Compounds were serially diluted in 100% DMSO, and then diluted with water to 10% final DMSO concentration. A 4 μl aliquot of compounds in 10% DMSO was transferred into columns 3-22 of Greiner 384-well white small-volume plates. Columns 1-2 and 23-24 contained 4 μL of 10% DMSO.
Columns 1-2 were reserved for positive controls, and 8 μL of Th-Ab buffer was added using a WellMate bulk dispenser (Matrix). An aliquot of 8 μL of Bfl-1/Th-Ab working solution was added to columns 3-24 of Greiner 384 well white plates using a WellMate bulk dispenser (Matrix). Columns 23-24 represented negative control wells. Plates were incubated for 1 h at 4° C. An 8 μL aliquot of freshly prepared FITC-Bid working solution was added to the whole plate using WellMate bulk dispenser (Matrix). Plates were incubated for 4 h at room temperature protected from direct light. Fluorescence was measured on the M5 plate reader (excitation: 340 nm, emission: 490 and 520 nm, cutoff: 475 and 515 nm, respectively) in Time Resolved (TR) mode with signal integrated for 1 ms after initial delay of 0.1 ms. TR-FRET signal was calculated as the ratio of TR-Fluorescence at 520 nm to TR-Fluorescence at 490 nm. Data analysis was performed using a sigmoidal dose-response equation through non-linear regression.

[3] = Tables 7-8, Avg where the cell lists several determinations, read-out: Bfl-1 TR-FRET IC50
[4] = Tables 7-8, Avg where the cell lists several determinations

Structure (SMILES) | pIC50 [1] | pIC50 [2, 3] | also measured
CC(C)c1nnc(NC(=O)CCS(=O)(=O)c2nc(-c3cccs3)cc(C(F)(F)F)n2)s1 [ASN05990586] | 4.95 | 5.28 | –
COCC(C)NC(=O)CCS(=O)(=O)c1nc(-c2ccc(OC)cc2)cc(C(F)(F)F)n1 (stereo not shown) [BAS03664947] | 4.69 | 4.71 | –
COc1ccc(N2C(=O)C(Cl)=C(Nc3c(C)n(C)n(-c4ccccc4)c3=O)C2=O)cc1 [Compound 3453-0809] | 4.09 | < 4.00 | –
CCOC(=O)CS(=O)(=O)c1nc(-c2ccccc2)cc(C(F)(F)F)n1 [Compound 7663066] | 5.33 | 5.54 | IC50 [1]: 2.63 µM and 2.4 µM and 5.42 µM and 8.1 µM; IC50 ([2]; Tables 7-8): 1.18 µM and 4.63 µM
CCOC(=O)CCS(=O)(=O)c1nc(-c2ccccc2)cc(C(F)(F)F)n1 [Compound 7914223] | 5.10 | 5.40 | –
Cc1cc(NC(=O)CCS(=O)(=O)c2nc(-c3ccccc3)cc(C(F)(F)F)n2)no1 [Compound 7979496] | 4.84 | 5.04 | –
CCOC(=O)CS(=O)(=O)c1nc(-c2ccc(F)cc2)cc(C(F)(F)F)n1 [Compound 7979975] | – | 5.75 | IC50 [1]: 1.98 µM and 1.27 µM and 0.695 µM and 1.72 µM and 0.866 µM and 3.33 µM and 4.4 µM and 6.43 µM; IC50 ([2]; Tables 7-8): 1.37 µM and 0.59 µM and 1.5 µM and 2.79 µM and 1.03 µM and 3.41 µM
COc1ccccc1-c1cc(C(F)(F)F)nc(S(=O)(=O)CCCC(=O)N2CCOCC2)n1 [Compound 7990929] | 4.67 | 4.72 | –
COc1ccccc1-c1cc(C(F)(F)F)nc(S(=O)(=O)CCCC(=O)NC(C)C)n1 [Compound C071-0355] | – | – | Bfl-1 FPA IC50 (uM) [1]: nodisplacement; Bfl-1 TR-FRET IC50 (uM) [2, 4]: nodisplacement
COc1ccccc1-c1cc(C(F)(F)F)nc(S(=O)(=O)CCCC(=O)N2CCCCC2C)n1 (stereo not shown) [Compound C071-0367] | 4.83 | 4.89 | –
COc1ccccc1-c1cc(C(F)(F)F)nc(S(=O)(=O)CCCC(=O)Nc2cc(C)on2)n1 [Compound C071-0415] | – | – | Bfl-1 FPA IC50 (uM) [1]: nodisplacement; Bfl-1 TR-FRET IC50 (uM) [2, 4]: nodisplacement
Cc1cc(NC(=O)CCCS(=O)(=O)c2nc(-c3cccs3)cc(C(F)(F)F)n2)no1 [Compound C071-0649] | 4.39 | 4.94 | –
CS(=O)(=O)c1nc(-c2ccccc2)cc(C(F)(F)F)n1 [Compound C164-0003] | – | – | Bfl-1 FPA IC50 (uM) [1]: nodisplacement; Bfl-1 TR-FRET IC50 (uM) [2, 4]: nodisplacement
CS(=O)(=O)c1nc(-c2cccs2)cc(C(F)(F)F)n1 [Compound C164-0005] | 5.20 | 4.81 | –
CS(=O)(=O)c1nc(-c2ccco2)cc(C(F)(F)F)n1 [Compound C164-0006] | 5.14 | 5.22 | –
COc1ccc(-c2cc(C(F)(F)F)nc(S(C)(=O)=O)n2)c(OC)c1 [Compound C164-0014] | 4.60 | 5.20 | IC50 [1]: 40.7 µM and 5.92 µM and 27.2 µM and 28.8 µM and 22.9 µM; IC50 ([2]; Tables 7-8): 5.29 µM and 3.73 µM and 10.1 µM
CN1CCN(C2=CC(=O)N(c3ccc(Cl)cc3)C2=O)CC1 [MLS-0066987] | – | – | Bfl-1 FP assay, activity in words [1]: inactive; Bfl-1 TR-FRET assay, activity in words [2]: inactive
O=C1C(Cl)=C(N2CCCCC2)C(=O)N1c1ccc(Cl)c(Cl)c1 [MLS-0066990] | – | – | Bfl-1 FP IC50 (uM) ([1]; Tables 3-5): no fit; pIC50 ([2]; Tables 3-5, read-out: Bfl-1 TR FRET IC50): 5.89
CN1CCN(C2CC(=O)N(c3ccc(Cl)c(Cl)c3)C2=O)CC1 (stereo not shown) [MLS-0066991] | – | – | Bfl-1 FP assay, activity in words [1]: inactive; Bfl-1 TR-FRET assay, activity in words [2]: inactive
